Source: patent US11058680B2, “Combinations of opioid/TLR4 antagonists and acetaminophen for use in the treatment of emotional pain and insomnia” (Allodynic Threapeutics, LLC, priority 2016, dated 2021)
Several values for one entry are separate records, joined by “and”; a condition that tells them apart may be missing. Equal entries are not always repeated.

System: migraine attacks
Experiment: Naltrexone/acetaminophen open-label pilot study, acute treatment of migraine: headache pain (4-point scale; relief score ≤1, pain-free score = 0), associated symptoms, additional meds
Assay type: in vivo, human
Description: Sixteen unique patients were enrolled in an open phase pilot study for the acute treatment of migraine attacks, insomnia, and emotional pain. Of the sixteen patients, eleven were evaluated for one migraine attack, one for two attacks, two for four attacks, one for six attacks, and one for fourteen attacks. A total of forty-one […] treatments were evaluated. Patients received a single dose of one of the following treatment options:
The majority of the patients remained in the clinic for observation for 2 hours after dosing. They completed headache diary assessments immediately before and after dosing at time points: 7, 15, and 30 minutes; and 1, 1.5, 2, 3, 6, 12, 24, and 48 hours. Headache pain was assessed on a 4-point scale (0=none; 1=mild; 2=moderate; 3=severe). The assessment of photophobia, phonophobia, nausea, and neck/shoulder pain was assessed as present or absent. The assessment of emotional pain was recorded on a 4-point scale (0=none, 1=mild, 2=moderate, 3=severe). The assessment of difficulty sleeping or falling asleep (insomnia) was assessed on a 4-point scale (0=none, 1=mild, 2=moderate, 3=severe) at baseline, for the night before treatment and for the following nights at 24, and 48 hours. Patients recorded side effects severity at each time point. Patients recorded the time of the first rescue medication dose and all additional headache medications used within 48 hours. Patients were required to stay awake to record their assessments in the first 2 hours, sleeping was permitted thereafter. While asleep, assessments were completed according to patients' best estimation. For data analysis, it was assumed that a migraine attack is a unique patient. Patients were asked to specify (yes or no answer) to whether they experienced emotional pain symptoms such as: hurt feelings, sadness, fear, or anger. Patients who replied positively to having emotional pain were asked to specify the cause into one of the following options: relationship, work/school, money/debt, health, or loss/grief.

[1] = 1 h, NTX/APAP 3.25 mg/325 mg, NTX 3.25 mg
[2] = 1 h, NTX/APAP 5 mg/325 mg, NTX 5 mg
[3] = 1 h, NTX/APAP […]325 mg, NTX 1.5 mg
[4] = 1 h, naltrexone/acetaminophen 2.25 mg/325 mg (N=21), naltrexone 2.25 mg (N=9)
[5] = 90 min, NTX/APAP 2.25 mg/325 mg, NTX 2.25 mg
[6] = 90 min, NTX/APAP 3.25 mg/325 mg, NTX 3.25 mg
[7] = 90 min, NTX/APAP 5 mg/325 mg, NTX 5 mg
[8] = 90 min, NTX/APAP […]325 mg, NTX 1.5 mg
[9] = 90 min, naltrexone/acetaminophen 2.25 mg/325 mg (N=21), naltrexone 2.25 mg (N=9)
[10] = 2 h, NTX/APAP 2.25 mg/325 mg, NTX 2.25 mg
[11] = 2 h, NTX/APAP 3.25 mg/325 mg, NTX 3.25 mg
[12] = 2 h, NTX/APAP 5 mg/325 mg, NTX 5 mg
[13] = 2 h, NTX/APAP […]325 mg, NTX 1.5 mg
[14] = 2 h, naltrexone/acetaminophen 2.25 mg/325 mg (N=21), naltrexone 2.25 mg (N=9)
[15] = 3 h, NTX/APAP 2.25 mg/325 mg, NTX 2.25 mg

With `O=C1CC[C@@]2(O)[C@H]3Cc4ccc(O)c5c4[C@@]2(CCN3CC2CC2)[C@H]1O5` [naltrexone] the Headache pain-relief [1] was 3 (100) n (%), the “Most bothersome symptom free” value [1] was 2 (66) n (%) and the Nausea-free [1] was 3 (100) n (%). The Neck/shoulder pain-free [1] was 3 (100) n (%), the Phonophobia-free [1] was 2 (66) n (%) and the Photophobia-free [1] was 1 (33) n (%). For the same compound, the Additional meds taken [2] was 0, the Headache pain-free [2] was 0 n (%) and the Headache pain-relief [2] was 1 n (%). The “Most bothersome symptom free” value [2] was 1 n (%), the Nausea-free [2] was 1 n (%) and the Neck/shoulder pain-free [2] was 1 n (%). For the same compound, the Phonophobia-free [2] was 1 n (%), the Photophobia-free [2] was 1 n (%) and the Additional meds taken [3] was 0. The Headache pain-free [3] was 1 (33) n (%), the Headache pain-relief [3] was 2 (66) n (%) and the “Most bothersome symptom free” value [3] was 1 (33) n (%). For the same compound, the Nausea-free [3] was 3 (100) n (%), the Neck/shoulder pain-free [3] was 2 (66) n (%) and the Phonophobia-free [3] was 1 (33) n (%). For the same compound, the Photophobia-free [3] was 2 (66) n (%), the Additional meds taken (1 h, all doses combined) was 0 and the Headache pain-free (1 h, all doses combined) was 8 (50) n (%). The Headache pain-relief (1 h, all doses combined) was 13 (81) n (%), the “Most bothersome symptom free” value (1 h, all doses combined) was 11 (69) n (%) and the Nausea-free (1 h, all doses combined) was 12 (75) n (%). For the same compound, the Neck/shoulder pain-free (1 h, all doses combined) was 12 (75) n (%), the Phonophobia-free (1 h, all doses combined) was 12 (75) n (%) and the Photophobia-free (1 h, all doses combined) was 10 (63) n (%). The Headache pain-free (1 h, naltrexone 1.5 mg (N=3)) was 33%, the Headache pain-free [4] was 44% and the Headache pain-relief [4] was 88%. For the same compound, the Most bothersome symptom-free [4] was 77%, the Headache pain-free (1 h, naltrexone/acetaminophen 3.25 mg/325 mg (N=3), naltrexone 3.25 mg (N=3)) was 100% and the Additional meds taken [5] was 0 (0). For the same compound, the Headache pain-free [5] was 7 (77) n (%), the Headache pain-relief [5] was 9 (100) n (%) and the “Most bothersome symptom free” value [5] was 9 (100) n (%). The Nausea-free [5] was 9 (100) n (%), the Neck/shoulder pain-free [5] was 9 (100) n (%) and the Phonophobia-free [5] was 9 (100) n (%). For the same compound, the Photophobia-free [5] was 8 (88) n (%), the Additional meds taken [6] was 0 (0) and the Headache pain-free [6] was 3 (100) n (%). For the same compound, the Headache pain-relief [6] was 3 (100) n (%), the “Most bothersome symptom free” value [6] was 2 (66) n (%) and the Nausea-free [6] was 2 (66) n (%). For the same compound, the Neck/shoulder pain-free [6] was 3 (100) n (%), the Phonophobia-free [6] was 2 (66) n (%) and the Photophobia-free [6] was 2 (66) n (%). The Additional meds taken [7] was 0 (0), the Headache pain-free [7] was 1 (100) n (%) and the Headache pain-relief [7] was 1 (100) n (%). For the same compound, the “Most bothersome symptom free” value [7] was 1 (100) n (%), the Nausea-free [7] was 1 (100) n (%) and the Neck/shoulder pain-free [7] was 1 (100) n (%). The Phonophobia-free [7] was 1 (100) n (%), the Photophobia-free [7] was 1 (100) n (%) and the Additional meds taken [8] was 0 (0). For the same compound, the Headache pain-free [8] was 1 (33) n (%), the Headache pain-relief [8] was 3 (100) n (%) and the “Most bothersome symptom free” value [8] was 2 (66) n (%). The Nausea-free [8] was 3 (100) n (%), the Neck/shoulder pain-free [8] was 1 (33) n (%) and the Phonophobia-free [8] was 1 (100) n (%). The Photophobia-free [8] was 1 (100) n (%), the Additional meds taken (90 min, all doses combined) was 0 and the Headache pain-free (90 min, all doses combined) was 13 (81) n (%). The Headache pain-relief (90 min, all doses combined) was 16 (100) n (%), the “Most bothersome symptom free” value (90 min, all doses combined) was 14 (88) n (%) and the Nausea-free (90 min, all doses combined) was 16 (100) n (%). The Neck/shoulder pain-free (90 min, all doses combined) was 14 (88) n (%), the Phonophobia-free (90 min, all doses combined) was 13 (81) n (%) and the Photophobia-free (90 min, all doses combined) was 12 (75) n (%). The Headache pain-free (90 min, naltrexone 1.5 mg (N=3)) was 100%, the Headache pain-free [9] was 77% and 100% and the Headache pain-relief [9] was 100%. For the same compound, the Most bothersome symptom-free [9] was 100%, the Headache pain-free (90 min, naltrexone/acetaminophen 3.25 mg/325 mg (N=3), naltrexone 3.25 mg (N=3)) was 100% and the Additional meds taken [10] was 0. For the same compound, the Headache pain-free [10] was 7 (77) n (%), the Headache pain-relief [10] was 9 (100) n (%) and the “Most bothersome symptom free” value [10] was 9 (100) n (%). The Nausea-free [10] was 9 (100) n (%), the Neck/shoulder pain-free [10] was 9 (100) n (%) and the Phonophobia-free [10] was 9 (100) n (%). The Photophobia-free [10] was 8 (88) n (%), the Additional meds taken [11] was 0 and the Headache pain-free [11] was 3 (100) n (%). The Headache pain-relief [11] was 3 (100) n (%), the “Most bothersome symptom free” value [11] was 3 (100) n (%) and the Nausea-free [11] was 3 (100) n (%). The Neck/shoulder pain-free [11] was 3 (100) n (%), the Phonophobia-free [11] was 3 (100) n (%) and the Photophobia-free [11] was 3 (100) n (%). The Additional meds taken [12] was 0, the Headache pain-free [12] was 1 n (%) and the Headache pain-relief [12] was 1 n (%). For the same compound, the “Most bothersome symptom free” value [12] was 1 n (%), the Nausea-free [12] was 1 n (%) and the Neck/shoulder pain-free [12] was 1 n (%). For the same compound, the Phonophobia-free [12] was 1 n (%), the Photophobia-free [12] was 1 n (%) and the Additional meds taken [13] was 0. For the same compound, the Headache pain-free [13] was 3 (100) n (%), the Headache pain-relief [13] was 3 (100) n (%) and the “Most bothersome symptom free” value [13] was 3 (100) n (%). For the same compound, the Nausea-free [13] was 3 (100) n (%), the Neck/shoulder pain-free [13] was 3 (100) n (%) and the Phonophobia-free [13] was 3 (100) n (%). The Photophobia-free [13] was 3 (100) n (%), the Additional meds taken (2 h, combined doses) was 0 and the Headache pain-free (2 h, combined doses) was 14 (88) n (%). For the same compound, the Headache pain-relief (2 h, combined doses) was 16 (100) n (%), the “Most bothersome symptom free” value (2 h, combined doses) was 16 (100) n (%) and the Nausea-free (2 h, combined doses) was 16 (100) n (%). The Neck/shoulder pain-free (2 h, combined doses) was 16 (100) n (%), the Phonophobia-free (2 h, combined doses) was 16 (100) n (%) and the Photophobia-free (2 h, combined doses) was 16 (100) n (%). For the same compound, the Headache pain-free (2 h, naltrexone 1.5 mg (N=3)) was 100%, the Headache pain-free [14] was 77% and 100% and the Headache pain-relief [14] was 100%. For the same compound, the Most bothersome symptom-free [14] was 100%, the Headache pain-free (2 h, naltrexone/acetaminophen 3.25 mg/325 mg (N=3), naltrexone 3.25 mg (N=3)) was 100% and the Additional meds taken [15] was 0 (0). For the same compound, the Headache pain-free [15] was 7 (77) n (%), the Headache pain-relief [15] was 9 (100) n (%) and the “Most bothersome symptom free” value [15] was 9 (100) n (%). For the same compound, the Nausea-free [15] was 9 (100) n (%), the Neck/shoulder pain-free [15] was 9 (100) n (%) and the Phonophobia-free [15] was 9 (100) n (%).
